Results as given in publication PMC10017042 (Science Advances, 2023).
Values joined by “and” are separate entries in the source; they are usually repeats but may differ in a detail not shown here. Equal entries are not always repeated. Where two headings read alike, the source gives them in different places.

Columns and labels:
HIV-1 [1] = conditions: for Median fold change in CA US HIV-1 RNA from baseline: pyrimethamine monotherapy excluding LUNA-10 who stopped; for CA US HIVRNA copies/150 ng Total RNA Day 0, 6 hours / CA US HIVRNA copies/150 ng Total RNA Day 14 / CA US HIVRNA copies/150 ng Total RNA Day 42 / CA US HIVRNA copies/150 ng Total RNA Day 0, pretreatment: individual participants, one value each, below LOQ imputed as 16; for CA US HIVRNA copies/150 ng Total RNA Day 0, pretreatment: pretreatment baseline
Method: Because of low cell numbers in the baseline sample, LUNA-06 (combination arm, participant stopped at day 7) was excluded from this primary end point analysis.
For quantification of CA US HIV-1 RNA, CD4^+ T cells were isolated from peripheral blood mononuclear cells (PBMCs) by negative selection using EasySep Human CD4^+ T Cell Enrichment Cocktail ([…] Technologies). Isolation of CD4^+ T cells was performed on ice or at 4°C (unless indicated otherwise by the manufacturer). Approximately 1.5 × 10^6 CD4^+ T cells were lysed in triplicate with TRI reagent. Total RNA was isolated by the phenol/chloroform isolation method following the manufacturer’s instructions. A minimum of 150 ng of total RNA was deoxyribonuclease (DNase)–treated following the manufacturer’s instructions (DNase I, Amplification Grade, Invitrogen), and complementary DNA (cDNA) synthesis was performed in duplicate with SuperScript II (Invitrogen) following the manufacturer‘s instructions. Absolute quantification of CA US HIV-1 RNA was performed following a modified version of Pasternak et al. methodology ([72]). Briefly, the first round of nested amplification was performed in a final volume of 25 μl using 10 μl of cDNA, 2.5 μl of 10× PCR buffer (Life Technologies), 1 μl of 50 mM MgCl2 (Life Technologies), 1 μl of 10 mM deoxynucleotide triphosphate (dNTP) (Life Technologies), 0.075 μl of 100 μM US forward primer, 0.075 μl of 100 μM US reverse 1 primer, and 0.2 μl of Platinum Taq polymerase (Life Technologies) at 95°C for 5 min, followed by 15 cycles at 95°C for 30 s, 55°C for 30 s, and 72°C for […]. The second round of amplification was performed in a final volume of 25 μl using 2 μl of preamplified cDNA, 2.5 μl of […] PCR buffer (Life Technologies), 1 μl of 50 mM MgCl2 (Life Technologies), 1 μl of 10 mM dNTPs (Life Technologies), 0.05 μl of 100 μM US forward primer, 0.05 μl of 100 μM US reverse 2 primer, 0.0375 μl of US probe, and 0.2 μl of Platinum Taq polymerase (Life Technologies) at 95°C for 5 min, followed by 45 cycles at 95°C for 30 s and 60°C for 1 min. The list of primers and probe is available in table S9. The absolute number of US copies in the PCR was calculated using a standard curve ranging from 2 to 512 copies of a plasmid containing the full-length HIV-1 genome (pNL4.3.Luc.R-E-). […] The quantity of CA US HIV-1 RNA was expressed as the number of copies per 150 ng of input RNA in reverse transcription.
The measurements related to the end points CA US HIV-1 RNA, MS HIV-1 RNA, plasma HIV-1 RNA, and drug plasma levels were described as median with IQR or full range. […] The fold change difference per study arm from pretreatment CA US HIV-1 RNA levels to the time points 6 hours, day 14, and day 42 after first dosing was calculated by adding up the fold change per individual divided by the total number of measurements available per time point. We analyzed the primary end point by a generalized estimating equation model to evaluate whether any difference in the CA US HIV-1 RNA existed at any time point during the trial in any of the three interventional arms compared to the control arm. An interaction term of time and treatment was included. […] The difference between the observed and expected amount of CA US HIV-1 RNA was calculated, and combination therapy was considered synergistic if the difference and its 95% confidence interval were >0. Because of the number of participants in this pilot, all secondary end points were exploratory.

HIV-1 [2] = conditions: for Change in inducible reservoir size: day 0 versus day 42; for TILDA reservoir, cells with multiply spliced HIV-RNA detectable per million CD4+ T-cells, >1year / TILDA reservoir, cells with multiply spliced HIV-RNA detectable per million CD4+ T-cells, Day 42 / TILDA reservoir, cells with multiply spliced HIV-RNA detectable per million CD4+ T-cells, Day 0, 0 hour: individual participants, one value each; for TILDA reservoir, cells with multiply spliced HIV-RNA detectable per million CD4+ T-cells, >1year: >1 year after end of treatment; for TILDA reservoir, cells with multiply spliced HIV-RNA detectable per million CD4+ T-cells, Day 0, 0 hour: pretreatment baseline
Method: Here, the measurement from the cells obtained >1 year after the last visit was used.
The frequency of CD4^+ T cells expressing MS HIV-1 RNA was determined using TILDA with some modifications to the protocol described previously by our group ([68]). Briefly, total CD4^+ T cells were isolated from PBMCs by negative magnetic selection using EasySep CD4^+ Human CD4^+ T Cell Enrichment kit ([…] Technologies). Following isolation, 1.5 × 10^6 CD4^+ T cells/ml were rested in complete RPMI 1640 for 5 to 8 hours before 12 hours of stimulation with PMA (100 ng/ml) and ionomycin (1 μg/ml) (both from Sigma-Aldrich). After stimulation, CD4^+ T cells were washed and resuspended in serum-free RPMI 1640. Cells were counted and serially diluted accordingly: 1.8 × 10^6 cells/ml, 9 × 10^5 cells/ml, 3 × 10^5 cells/ml, and 1 × 10^5 cells/m. […] In the preamplification reaction, 10 μl of the cell suspension from each dilution was dispensed into 24 to 48 wells of a 96-well plate containing 2 μl of one-step RT-PCR enzyme (Qiagen), 10 μl of 5× one-step RT-PCR buffer (Qiagen), 10 μl of Triton X-100 (0.3%), 0.25 μl of RNAsin (40 U/μl), 2 μl of dNTPs (10 mM each), 1 μl of tat1.4 forward primer (20 μM) and rev reverse primer (20 μM) (as published), and nuclease-free water to a final reaction volume of 50 μl. The one-step RT-PCR was run using the following thermocycling conditions: 50°C for 30 min, 95°C for 15 min, followed by 25 cycles of 95°C for 1 min, 55°C for 1 min, and 72°C for 2 min, and a final extension at 72°C for 5 min. After preamplification, 2 μl of the products was used as input for the real-time PCR to detect tat/rev MS HIV-1 RNA in a final reaction volume of 20 μl, which consisted of 5 μl of 4× TaqMan Fast Advanced Master mix (Thermo Fisher Scientific), 0.4 μl of tat2.0 forward primer, rev reverse primer (each at 20 μM), and MS tat/rev probe (5 μM). The real-time PCR was performed using the following program: 50°C for 5 min, 95°C for 20 s, followed by 45 cycles of 95°C for 3 s and 60°C for 30 s. Positive wells at each dilution were recorded and used to determine the frequency of cells expressing tat/rev MS HIV-1 RNA by the maximum likelihood method.

## CCc1nc(N)nc(N)c1-c1ccc(Cl)cc1 [pyrimethamine]
HIV-1 [1]; 6 hours after first dose, arm mean
  Mean fold change in CA US HIV-1 RNA: 2.11 fold
HIV-1 [1]; 6 hours after the first dose
  PLWH with increased CA US HIV-1 RNA (responders): six of seven
HIV-1 [1]; after 6 hours, the two arms exposed to pyrimethamine pooled (with and without VPA)
  Median fold change CA US HIV-1 RNA: 1.8 fold
HIV-1 [1]; day 0, t = 0 hours (pretreatment baseline, normalisation point)
  Median fold change in CA US HIV-1 RNA (normalized to day 0, 0 hours): 1 fold
HIV-1 [1]; day 0, t = 6 hours after first dose, arm median, PLWH on cART, oral PYR 200 mg day 1 then 100 mg once daily, VPA 30 mg/kg per day
  Median fold change in CA US HIV-1 RNA (normalized to day 0, 0 hours): 2.1073 fold
HIV-1 [1]; day 14 (end of treatment), arm median, PLWH on cART
  Median fold change in CA US HIV-1 RNA (normalized to day 0, 0 hours): 1.9 fold
HIV-1 [1]; day 14 (end of treatment), arm median, PLWH on cART, listed as Pyrimethamine
  Median fold change in CA US HIV-1 RNA (normalized to day 0, 0 hours): 1.9129 fold
HIV-1 [1]; day 14
  Median fold change in CA US HIV-1 RNA from baseline: 1.8 fold
HIV-1 [1]; day 42 (28 days after end of treatment), arm median, PLWH on cART
  Median fold change in CA US HIV-1 RNA (normalized to day 0, 0 hours): 1.7 fold
HIV-1 [1]; day 42 (28 days after end of treatment), arm median, PLWH on cART, listed as Pyrimethamine
  Median fold change in CA US HIV-1 RNA (normalized to day 0, 0 hours): 1.6775 fold
HIV-1 [1]; day 42
  Median fold change in CA US HIV-1 RNA from baseline: 1.6 fold
HIV-1 [1]; listed as PYR
  CA US HIVRNA copies/150 ng Total RNA Day 0, 6 hours: 125,01 copies/150 ng Total RNA and 126,50 copies/150 ng Total RNA and 51,31 copies/150 ng Total RNA and 94,04 copies/150 ng Total RNA and 39,82 copies/150 ng Total RNA and 55,52 copies/150 ng Total RNA and 96,01 copies/150 ng Total RNA
  CA US HIVRNA copies/150 ng Total RNA Day 14: 114,91 copies/150 ng Total RNA and 111,02 copies/150 ng Total RNA and 74,67 copies/150 ng Total RNA and 54,10 copies/150 ng Total RNA and 42,33 copies/150 ng Total RNA and 62,36 copies/150 ng Total RNA and 111,26 copies/150 ng Total RNA
  CA US HIVRNA copies/150 ng Total RNA Day 42: 85,80 copies/150 ng Total RNA and 54,17 copies/150 ng Total RNA and 82,71 copies/150 ng Total RNA and 69,81 copies/150 ng Total RNA and 29,28 copies/150 ng Total RNA and 101,16 copies/150 ng Total RNA and 84,39 copies/150 ng Total RNA
  CA US HIVRNA copies/150 ng Total RNA Day 0, pretreatment: 32,60 copies/150 ng Total RNA and 68,92 copies/150 ng Total RNA and 24,35 copies/150 ng Total RNA and 49,43 copies/150 ng Total RNA and 16,00 copies/150 ng Total RNA and 79,98 copies/150 ng Total RNA and 51,15 copies/150 ng Total RNA
HIV-1 [2]; after treatment (day 42)
  Median inducible reservoir (TILDA): 10.0 cells per million CD4+ T cells
HIV-1 [2]; before treatment (day 0)
  Median inducible reservoir (TILDA): 15.1 cells per million CD4+ T cells
HIV-1 [2]
  Change in inducible reservoir size: do not indicate a significant change
HIV-1 [2]; listed as PYR
  TILDA reservoir, cells with multiply spliced HIV-RNA detectable per million CD4+ T-cells, >1year: 19.3 per million CD4+ T-cells and 91.8 per million CD4+ T-cells and 13.9 per million CD4+ T-cells and 6.1 per million CD4+ T-cells and 22.2 per million CD4+ T-cells and 15.2 per million CD4+ T-cells
  TILDA reservoir, cells with multiply spliced HIV-RNA detectable per million CD4+ T-cells, Day 42: 8.8 per million CD4+ T-cells and 122.8 per million CD4+ T-cells and 9.0 per million CD4+ T-cells and 1.6 per million CD4+ T-cells and 22.9 per million CD4+ T-cells
  TILDA reservoir, cells with multiply spliced HIV-RNA detectable per million CD4+ T-cells, Day 0, 0 hour: 2.7 per million CD4+ T-cells and 109.8 per million CD4+ T-cells and 16.9 per million CD4+ T-cells and 11.5 per million CD4+ T-cells and 15.1 per million CD4+ T-cells and 20.1 per million CD4+ T-cells and 2.8 per million CD4+ T-cells

## CCCC(CCC)C(=O)O [valproic acid]
HIV-1 [1]; any time point
  Median CA US HIV-1 RNA compared to pretreatment levels: did not have significantly increased
HIV-1 [1]; listed as VPA
  CA US HIVRNA copies/150 ng Total RNA Day 0, 6 hours: 42,74 copies/150 ng Total RNA and 53,04 copies/150 ng Total RNA and 19,23 copies/150 ng Total RNA and 101,51 copies/150 ng Total RNA and 51,59 copies/150 ng Total RNA and 10,16 copies/150 ng Total RNA and 16,00 copies/150 ng Total RNA
  CA US HIVRNA copies/150 ng Total RNA Day 14: 28,40 copies/150 ng Total RNA and 97,80 copies/150 ng Total RNA and 16,00 copies/150 ng Total RNA and 47,89 copies/150 ng Total RNA and 161,79 copies/150 ng Total RNA and 18,41 copies/150 ng Total RNA and 18,82 copies/150 ng Total RNA
  CA US HIVRNA copies/150 ng Total RNA Day 42: 49,74 copies/150 ng Total RNA and 59,03 copies/150 ng Total RNA and 16,00 copies/150 ng Total RNA and 52,98 copies/150 ng Total RNA and 59,33 copies/150 ng Total RNA and 22,83 copies/150 ng Total RNA
  CA US HIVRNA copies/150 ng Total RNA Day 0, pretreatment: 95,16 copies/150 ng Total RNA and 39,10 copies/150 ng Total RNA and 16,00 copies/150 ng Total RNA and 76,70 copies/150 ng Total RNA and 12,93 copies/150 ng Total RNA and 22,90 copies/150 ng Total RNA
HIV-1 [2]
  Change in inducible reservoir size: remained stable
HIV-1 [2]; listed as VPA
  TILDA reservoir, cells with multiply spliced HIV-RNA detectable per million CD4+ T-cells, >1year: 2.5 per million CD4+ T-cells and 25.5 per million CD4+ T-cells and 286.2 per million CD4+ T-cells and 2.2 per million CD4+ T-cells and 19.0 per million CD4+ T-cells
  TILDA reservoir, cells with multiply spliced HIV-RNA detectable per million CD4+ T-cells, Day 42: 26.0 per million CD4+ T-cells and 12.7 per million CD4+ T-cells and 1.2 per million CD4+ T-cells and 12.9 per million CD4+ T-cells
  TILDA reservoir, cells with multiply spliced HIV-RNA detectable per million CD4+ T-cells, Day 0, 0 hour: 12.5 per million CD4+ T-cells and 100.7 per million CD4+ T-cells and 326.5 per million CD4+ T-cells and 2.5 per million CD4+ T-cells and 17.1 per million CD4+ T-cells and 3.4 per million CD4+ T-cells
